Source: patent US20030225152A1, “3-(Arylamino)methylene-1, 3-dihydro-2h-indol-2-ones as kinase inhibitors” (priority 2001, published 2003)

What was measured:
[1] = test system: VEGF induced increases in intracellular calcium levels in HUVEC (human umbilical vein endothelial cells); test: VEGF Stimulated Ca++ Signal in vitro (FLIPR); type: cell-based; settings: VEGF 5 ng/mL; for IC50: 0.01 to 10.0 μM
In short: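 IC50 values derive from % inhibition of the VEGF (5 ng/mL) calcium response, taken as max-min fluorescence at 516 nm in Fluo-4-loaded HUVEC. Compounds (0.1% DMSO final) were added 30 min before stimulation, at 10 μM or across 0.01–10.0 μM.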

[2] = target: T1, cytoplasmic domain of the human VEGF receptor (VEGFR-2) (Homo sapiens, UniProt P35968); test: KDR Assay; type: biochemical; settings: His-VEGFR-2; 3.6 μM ATP
T1 construct: The cytoplasmic domain of the human VEGF receptor (VEGFR-2) was expressed as a Histidine-tagged fusion protein; Histidine tag
T1 sequence (P35968 786-1356): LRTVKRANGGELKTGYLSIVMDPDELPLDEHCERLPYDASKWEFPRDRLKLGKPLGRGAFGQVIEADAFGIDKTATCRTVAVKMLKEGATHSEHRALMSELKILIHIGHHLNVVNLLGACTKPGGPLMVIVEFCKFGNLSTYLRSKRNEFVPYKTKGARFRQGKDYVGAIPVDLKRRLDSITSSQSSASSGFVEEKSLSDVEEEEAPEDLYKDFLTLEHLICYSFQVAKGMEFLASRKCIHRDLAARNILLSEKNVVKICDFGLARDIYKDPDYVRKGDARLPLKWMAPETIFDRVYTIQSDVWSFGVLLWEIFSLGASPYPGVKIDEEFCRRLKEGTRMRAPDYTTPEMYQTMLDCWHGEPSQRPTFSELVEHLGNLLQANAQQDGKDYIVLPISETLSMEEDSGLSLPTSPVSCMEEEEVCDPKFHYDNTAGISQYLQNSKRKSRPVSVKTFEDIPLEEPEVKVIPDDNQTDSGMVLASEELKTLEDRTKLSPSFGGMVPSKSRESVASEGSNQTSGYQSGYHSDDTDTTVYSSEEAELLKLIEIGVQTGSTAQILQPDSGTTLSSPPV
In short: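 IC50 taken from blank-corrected OD492 curves of an anti-phosphotyrosine peroxidase ELISA. Reaction: 10 min, 25 °C, 3.6 μM ATP, 50 mM Hepes pH 7.4 with 20 mM MgCl2, 0.1 mM MnCl2 and 5% DMSO, on poly-Glu-Tyr-coated wells, started with insect-cell-expressed His-VEGFR-2 cytoplasmic domain.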

[3] = test system: VEGF-induced EBD extravasation; test: VEGF-induced Dermal Extravasation in Guinea Pig (Miles Assay); type: in vivo
Method: VEGF-induced Dermal Extravasation in Guinea Pig (Miles Assay). Male Hartley guinea pigs (300-600 g) were anesthetized with isofluorane, sheared, and given a single dose of drug or the respective vehicle. The guinea pigs were dosed orally unless indicated otherwise in Table 3. Ten minutes prior to the end of drug treatment, guinea pigs were anesthetized with isofluorane, and 0.5% Evans blue dye (EBD) in PBS (13-15 mg/kg dose of EBD) was injected intravenously. After 5 minutes, triplicate intradermal injections of 100 ng rhVEGF165 in 100 μl PBS and of 100 μl PBS alone were administered on the flank. After 20 minutes, each animal was euthanized with Pentosol, and the skin containing the intradermal injection sites was removed for image analysis.
Using an analog video camera coupled to a PC, an image of each trans-illuminated skin sample was captured, and the integrated optical density of each injection site was measured using ImagePro 4. For each skin sample, the difference between the mean optical density of the VEGF sites and mean optical density of the PBS sites is the measure of VEGF-induced EBD extravasation in that animal. These measured values were averaged per study group to determine the mean VEGF-induced EBD extravasation for each experimental condition, and the group means were then compared to assess inhibition of VEGF-induced EBD extravasation in the drug-treated groups relative to the vehicle-treated controls.
(§1) To determine the dose required for 50% inhibition (ID50), the percent inhibition data was plotted as a function of oral dose, using the ‘best-fit’ analysis within MicroSoft Excel software. The ID50 value was verified visually by using the plotted data (horizontal line from 50% y value, at intersection with best-fit line drop vertical line to x axis (dose)).

[4] = test system: Laser-induced Choroidal Neovascularization (CNV); test: Laser-induced Choroidal Neovascularization (CNV) in Rat (CNV Assay); type: in vivo
Method: Laser-induced Choroidal Neovascularization (CNV) in Rat (CNV Assay). CNV was induced and quantified in this model as previously described (Edelman and Castro. Exp. Eye Res. 2000; 71:523-533). On day 0, male Brown Norway rats (200-300 g) were anesthetized with 100 mg/kg Ketamine and 10 mg/kg Xylazine, and pupils were dilated with 1% Tropicamide. Using the blue-green setting of a Coherent Novus Argon Laser, 3 laser bums (90 mW for 0.1 s; 100 μm diameter) were given to each eye between the retinal vessels around the optic nerve head. […]
On day 10, rats were sacrificed with 100% CO2, and blood vessels were labeled by vascular perfusion with 10 mg/ml FITC-dextran (MW 2×10^6). Using an epifluorescence microscope (20×) coupled to a spot digital camera and a PC, images were obtained from the flat mounts of the RPE-choroid-sclera from each eye, and the area occupied by hyperfluorescent neovessels within each laser lesion was measured using ImagePro 4 software.
as §1

IC50 [2] [nM] | Structure (SMILES) | inhibition at 10 µM ([1]; Homo sapiens) [%] | Miles Assay % inhibition ([3]; 75 mg/kg, PEG400, oral) [%] | Miles Assay % inhibition ([3]; 75 mg/kg, corn oil, oral) [%] | IC50 [1] [nM] | IC50 ([1]; Homo sapiens) [nM] | further results
350 | Cc1cccc2c1C(=CNc1ccc(N)cc1)C(=O)N2 [Example 181, 3-[(4-Amino-phenylamino)-methylene]-4-methyl-1,3-dihydro-indol-2-one] | 97.7 | 38 | – | – | – | –
460 | Nc1cccc(NC=C2C(=O)Nc3ccccc32)c1 [Example 211, 3-[(3-Amino-phenylamino)-methylene]-1,3-dihydro-indo1-2-one] | 96.7 | 38 | – | 660 | ≤ 1000 | –
330 | CCN(CC)CCCOc1ccc(NC=C2C(=O)Nc3ccccc32)cc1 [Example 214, 3-{[14-(3-Diethylamino-propoxy)-phenylamino]-methylene}-1,3-dihydro-indol-2-one] | 97.3 | 61 | 78 | – | – | –
340 | O=C1Nc2ccccc2C1=CNc1ccc(OCCCN2CCOCC2)cc1 [Example 215, 3-{[4-(3-Morpholin-4-yl-propoxy)-phenylamino]-methylene}-1,3-dihydro-indol-2-one] | 96.7 | 53 | – | 670 | ≤ 1000 | –
340 | O=C1Nc2ccccc2C1=CNc1ccc(OCCCN2CCCC2)cc1 [Example 216, 3-{[4-(3-Pyrrolidin-1-yl-propoxy)-phenylamino]-methylene}-1,3-dihydro-indol-2-one] | 95.3 | 91 | – | 570 | ≤ 1000 | –
220 | CC1CN(c2ccc(NC=C3C(=O)Nc4ccc(F)cc43)cc2)CC(C)O1 (centres unmarked) [Example 219, 3-{[4-(2,6-Dimethyl-morpholin-4-yl)-phenylamino]-methylene}-5-fluoro-1,3-dihydro-indol-2-one] | 97.4 | 28 | – | 620 | ≤ 1000 | –
60 | Cc1cccc2c1C(=CNc1ccc(N3CC(C)OC(C)C3)cc1)C(=O)N2 (centres unmarked) [Example 220, 3-{[4-(2,6-Dimethyl-morpholin-4-yl)-phenylamino]-methylene}-4-methyl-1,3-dihydro-indol-2-one] | 94.9 | 39 | – | – | – | –
110 | CC1CN(c2ccc(NC=C3C(=O)Nc4cc(F)ccc43)cc2)CC(C)O1 (centres unmarked) [Example 229, 3-{[4-(2,6-Dimethyl-morpholin-4-yl)-phenylamino]-methylene}-6-fluoro-1,3-dihydro-indol-2-one] | 97.2 | 97 | – | – | – | –
60 | Cc1cccc2c1C(=CNc1ccc(OCCCN3CCCCC3)cc1)C(=O)N2 [Example 238, 4-Methyl-3-{[4-(3-piperidin-1-yl-propoxy)-phenylamino]-methylene}-1,3-dihydro-indol-2-one] | 98.4 | – | 60 | 780 | ≤ 1000 | –
110 | O=C1Nc2cc(F)ccc2C1=CNc1ccc(NCCN2CCOCC2)cc1 [Example 243, 6-Fluoro-3-{[4-(2-morpholin-4-yl-ethylamino)-phenylamino]-methylene}-1,3-dihydro-indol-2-one] | 95.6 | – | 100 | – | – | –

Continued, compound first:

Structure (SMILES) | IC50 [2] [nM] | inhibition at 10 µM ([1]; Homo sapiens) [%] | Miles Assay % inhibition ([3]; 75 mg/kg, PEG400, oral) [%] | Miles Assay % inhibition ([3]; 75 mg/kg, corn oil, oral) [%] | IC50 [1] [nM] | IC50 ([1]; Homo sapiens) [nM] | further results
O=C1Nc2ccccc2C1=CNc1ccc(N2CCOCC2)cc1 [Example 40] | 250 | 96.7 | 100 | 47 | – | – | Miles Assay % inhibition ([3]; 1 mg/kg, I.V. bolus in 20% methyl cyclodextrin, preincubation period 0.5 h): 0%; Miles Assay % inhibition ([3]; 1 mg/kg, I.V. bolus in 20% methyl cyclodextrin, preincubation period 1 h): 0%; Miles Assay % inhibition ([3]; 1 mg/kg, I.V. bolus in 20% methyl cyclodextrin, preincubation period 2 h): 0%; Miles Assay % inhibition ([3]; 10 mg/kg, 43% methyl cyclodextrin, preincubation period 1 h): 6%; Miles Assay % inhibition ([3]; 75 mg/kg, homogenized corn oil, oral): 40%; Miles Assay % inhibition ([3]; 75 mg/kg, micronized corn oil, oral): 52%; Miles Assay ID50 ([3]; oral dose for 50% inhibition): 18 mg/kg; CNV Assay % inhibition ([4]; 20 mg/kg (bid), PEG400, oral): 95%; CNV Assay % inhibition ([4]; 20 mg/kg (sid), PEG400, oral): 54%; CNV Assay % inhibition ([4]; 40 mg/kg (sid), PEG400, oral): 96%; CNV Assay % inhibition ([4]; 50 mg/kg (bid), corn oil, oral): 92%; CNV Assay % inhibition (toxicity noted) ([4]; 100 mg/kg (sid), PEG400, oral): toxic; CNV Assay % inhibition ([4]; 100 mg/kg (sid), corn oil, oral): 74%; CNV Assay ID50 (mg/kg) ([4]; oral dose for 50% inhibition): ˜20 mg/kg
CC1CN(c2ccc(NC=C3C(=O)Nc4ccccc43)cc2)CC(C)O1 (centres unmarked) [Example 159, 3-{[4-(2,6-Dimethyl-morpholin-4-yl)-phenylamino]-methylene}-1,3-dihydro-indol-2-one] | 350 | 97.4 | 91 | – | 580 | ≤ 1000 | CNV Assay % inhibition ([4]; 100 mg/kg (sid), 10% DMAC, 10% NMP, 80% PEG400, oral): 41%
O=C1Nc2ccccc2C1=CNc1ccc(OCCCCN2CCCC2)cc1 [Example 179, 3-{[4-(4-Pyrrolidin-1-yl-butoxy)-phenylamino]-methylene}-1,3-dihydro-indol-2-one] | 310 | 97.3 | 65 | – | 640 | ≤ 1000 | –
O=C1Nc2ccccc2C1=CNc1ccc(OCCCCN2CCOCC2)cc1 [Example 206, 3-{[4-(4-Morpholin-4-yl-butoxy)-phenylamino]-methylene}-1,3-dihydro-indol-2-one] | 240 | 96.3 | – | 74 | 670 | ≤ 1000 | –
CCN(CC)CCCCOc1ccc(NC=C2C(=O)Nc3ccccc32)cc1 [Example 207, 3-{[4-(4-Diethylamino-butoxy)-phenylamino]-methylene}-1,3-dihydro-indol-2-one] | 240 | 98.6 | – | 80 | 510 | ≤ 1000 | –
CN1CCN(CCCCOc2ccc(NC=C3C(=O)Nc4ccccc43)cc2)CC1 [Example 208, 3-({4-[4-(4-Methyl-piperazin-1-yl)-butoxy]-phenylamino}-methylene)-1,3-dihydro-indol-2-one] | 260 | 99 | – | 32 | 530 | ≤ 1000 | –
O=C1Nc2ccccc2C1=CNc1ccc(OCCCCN2CCCCC2)cc1 [Example 209, 3-{[4-(4-Piperidin-1-yl-butoxy)-phenylamino]-methylene}-1,3-dihydro-indol-2-one] | 240 | 98.6 | 79 | 84 | – | – | CNV Assay % inhibition ([4]; 80 mg/kg (sid), corn oil, oral): 95%
O=C1Nc2ccccc2C1=CNc1ccc(OCCCN2CCCCC2)cc1 [Example 218, 3-{[4-(3-Piperidin-1-yl-propoxy)-phenylamino]-methylene}-1,3-dihydro-indol-2-one] | 170 | 98.1 | 99 | 97 | – | – | CNV Assay % inhibition ([4]; 9.3 mg/kg (sid), corn oil, oral): 33%; CNV Assay % inhibition ([4]; 38.5 mg/kg (sid), corn oil, oral): 68%; CNV Assay % inhibition ([4]; 80 mg/kg (sid), corn oil, oral): 99%; CNV Assay ID50 ([4]; oral dose for 50% inhibition): 17 mg/kg
